Measured values reported in PMC11747586, “Synthesis and Investigation of Peptide–Drug Conjugates Comprising Camptothecin and a Human Protein‐Derived Cell‐Penetrating Peptide” (Chemical Biology & Drug Design, 2025).
Where “and” joins values, the source holds several entries; their conditions need not be identical. Equal values may be shown once. Residues, ends and D or L forms follow the SMILES beside them. *: point of attachment. S(CH2)2OCO2(CPT-20-yl) = CC[C@@]1(OC(=O)OCCS*)C(=O)OCc2c1cc1n(c2=O)Cc2cc3ccccc3nc2-1

What was measured:
[1] = Parallel artificial membrane permeability assay (PAMPA); type: in vitro ADME; conditions: 4 h; for % recovered (soluble fractions) / Papp at 4 h, 4 μM: 4 μM; for % recovered (soluble fractions): combined apical and basolateral fractions; for Papp at 4 h, 4 μM: PAMPA, apical to basolateral, read-out: apparent permeability (Papp); for degradation during PAMPA experiment: cell-free, PBS, 37 °C
Description: FIGURE 4 (A) Membrane permeability and cellular uptake of PDCs, scaffold peptides, and CPT. Compounds were added to PAMPA wells (4 μM) and incubated for 4 h. Supernatant from apical and basolateral sides of the membrane were collected and analyzed using LC–MS. The amount in the combined soluble fractions was compared to the starting amount to determine % recovery, and the apparent permeability (Papp) was calculated as before (Sevin et al. [2013]). Data is expressed as mean ± SD from a single experiment with three technical replicates. (B) Internalization/cell membrane association of PDCs 12–14 and PDIP with HT144 cells. Cells were treated with PDIP or PDCs (4 μM) for 1 h, washed to remove extracellular compound, then extracted with 75% (v/v) MeCN in mQH2O (containing 1.75% (v/v) TFA), to recover soluble peptide or PDC from precipitated cell proteins. The relative amount of internalized peptide or PDC was determined by integrating area under the curve (AUC) for the [M + 6H]^6+ m/z peak (for the intact mass) using time of flight–mass spectrometry (see Figure S2). […] Data is expressed as mean ± SD from a single experiment with three technical replicates for each treatment and control and was analyzed with ANOVA (Tukey multiple comparisons; **p < 0.01, *p < 0.05). (C) Detection of intracellular CPT following 6 h treatment of HT144 cells with CPT and PDCs 12 and 14. […] Data is expressed as mean ± SD from a single experiment with three technical replicates for each treatment and was analyzed with ANOVA (Fisher multiple paired comparisons; **p < 0.01, *p < 0.05). TEXT PRINTED IN THE PICTURE: (A) PDIP: % recovered (soluble fractions): 94 | (A) 12: % recovered (soluble fractions): 58 | (A) 14: % recovered (soluble fractions): 33 | (A) 15: % recovered (soluble fractions): 40 | (A) c[A] PDIP: % recovered (soluble fractions): 34 | (A) CPT: % recovered (soluble fractions): 92 […]
For the first assay, the PDCs (12–15), scaffold peptides and CPT (4 μM) were added to the apical side of PAMPA monolayers and incubated for 4 h. […] PDIP, CPT, and PDCs 12 and 14 had high permeability (Papp ≥ 2 × 10^−6 cm/s), highlighting that these PDCs maintain membrane permeability with the CPT cargo attached. […] Reliable permeability data were not obtained for PDC 13 because of poor recovery of the PDC from soluble fractions, and degradation during the 4 h PAMPA experiment. […] Instability of the carbonate linkage within CPT conjugates containing a dipeptide linker has been previously reported (Walker et al. [2002]), highlighting the potential incompatibility of this drug–linker combination for CPT PDCs. Considering the observed degradation of 13 in the cell‐free assay, it is also possible that extracellular degradation occurred during the cytotoxicity assays.
Parallel artificial membrane permeability assay (PAMPA)
PAMPA was performed according to the manufacturer instructions for the BD Gentest pre-coated PAMPA plate system (BD Biosciences), as previously described.16 Briefly, peptides and PDCs (4 μM in PBS) were added to the apical side of PAMPA wells and incubated for 4 h at 37 °C, 5% CO2 with 95% humidity. Soluble fractions were recovered from the apical and basolateral sides, and compound concentration was quantified using a Shimadzu LCMS-2020 instrument with a Phenomenex 5 µm C18 / 300 Å / 150 x 2 mm LC column. Data was collected from three technical replicates for each compound. The % recovery was determined from (combined from apical and basolateral fractions) relative to the starting concentration:
Recovery rate : R (%) = (C஺ ×V஺ +C஻ ×V஻ )× 100 where CA and CB are the apical and basolateral concentrations (µM), VA and VB are the apical and basolateral volumes (mL), and C0 is the initial concentration (µM).
The apparent permeability coefficient (Papp) was calculated using the following equations17 and where A is the membrane surface area (cm2): […]

HT144 (melanoma) cells = experiment: cells
Description: (§1) Cell death was measured using resazurin, with 0.1% (v/v) Triton X‐100 as a control for 100% cell death. Data points are expressed as mean ± SD for at least two biological replicates. Dose response curves were fitted using [inhibitor] versus response with variable slope, Graphpad Prism v10. […] RBC lysis was determined by measuring released hemoglobin, with 0.1% (v/v) Triton X‐100 as a control for 100% cell lysis. Melittin was included as a membranolytic control. Data points are expressed as mean ± SD for two technical replicates. Dose response curves were fitted using [inhibitor] versus response with variable slope, Graphpad Prism v10. […] CC50 values are expressed as mean (SEM).
Cell death was measured using resazurin, with 0.1% (v/v) Triton X-100 as a control for 100% cell death. Data points are expressed as mean ± SD for at least two biological replicates. CC50 values are expressed as mean (SEM). Note: CPT-dipeptide-PDIP was not included in this study. c[A]PDIP is a desulfurized variant of cPDIP 2 (see Table S1) to prevent the presence of free thiol during assays. […]
(§2) HaCaT cells were grown in DMEM medium and HT144 cells were grown in RPMI medium supplemented with 2 mM L-glutamine and 10 mM sodium pyruvate. Media were supplemented with 10% (v/v) fetal bovine serum, 100 units/mL of penicillin and […] of streptomycin. Flasks of cultured cells were maintained in a humidified incubator (37 °C, 5% CO2) and passaged every 2–3 days to maintain cultures between 20–90% confluence. Cell line identity was verified by comparing […]
(§3) STR profiles of the cell lines against database entries from the DSMZ-German collection of microorganisms and cell cultures, GmBH https://celldive.dsmz.de/str/browse.
Toxicity to the HT144 and HaCaT cell lines was tested following peptide treatment by measuring the metabolism of resazurin into fluorescent resorufin. The assays were performed with 5000 cells/well (96-well plate) in serum free media. Cells were incubated with serially diluted peptides, PDCs or […]

[2] = Cytotoxicity (resazurin) against cultured HaCaT noncancerous cells; conditions: human
Description: as §1, with “(SEM). […]” for “(SEM).”
as §2, §3
Toxicity to the HT144 and HaCaT cell lines was tested following peptide treatment by measuring the metabolism of resazurin into fluorescent resorufin. The assays were performed with 5000 cells/well (96-well plate) in serum free media. Cells were incubated with serially diluted peptides, PDCs or drugs for 72 h or 24 h (37 °C, 5% CO2). PBS and 0.1% (v/v) Triton X-100 were included as controls for 0% and 100% toxicity. Resazurin was added at 0.02% (w/v) final concentration 2 h prior to the assay end point. Fluorescence (λex = 560 nm, λem = 585 nm) was measured using a Tecan infinite M1000Pro multiplate reader. Percentage cytotoxicity was calculated relative to 0% and 100% controls.
Dose-response curves were fitted and CC50 values were determined using [inhibitor] vs response with four parameters with the top constrained to 100% (GraphPad Prism version 10.0.2). Data was collected as three biological replicates, with experiments conducted on different days.
(§4) Red blood cell (RBC) lysis
Human RBCs and serum were obtained from healthy volunteers via the Red Cross Lifeblood, Brisbane, Australia. RBCs were washed three times with PBS and stored in culture medium (RPMI

human RBCs = experiment: Red blood cell (RBC) lysis, released hemoglobin; conditions: 72 h
Description: as §1, with “(SEM). […]” for “(SEM).”
as §4
Human RBCs and serum were obtained from healthy volunteers via the Red Cross Lifeblood,
Brisbane, Australia. RBCs were washed three times with PBS and stored in culture medium (RPMI

SMILES	% recovered (soluble fractions) [1]	Papp at 4 h, 4 μM [1] [×10⁻⁶ cm/s]	degradation during PAMPA experiment [1]	cytotoxic activity against HT144 at 24 h (HT144 (melanoma) cells; 24 h incubation, 16 nM to 2 μM (CPT, PDCs), up to 32 μM (peptides))	CC50 (HT144 (melanoma) cells; Homo sapiens, HT-144, 72 h, read-out: CC50 (half maximal cytotoxicity concentration) HT144) [nM]	CC50 at 72 h [2] [nM]	RBC lysis (human RBCs; concentration range 16 nM—2 μM)	HC10 (minimal hemolytic concentration) RBC (human RBCs; human RBCs 0.25% v/v) [µM]	concentration that completely lysed the RBCs (human RBCs; human RBCs) [µM]
CC[C@H](C)[C@@H]1NC(=O)[C@H](CCCCN)NC(=O)[C@H](CCCCN)NC(=O)[C@H](Cc2ccc(O)cc2)NC(=O)[C@H](CC(C)C)NC(=O)[C@@H]2CCCN2C(=O)[C@H](C)NC(=O)CNC(=O)CNC(=O)[C@H](CSSCCOC(=O)O[C@]2(CC)C(=O)OCc3c2cc2n(c3=O)Cc3cc4ccccc4nc3-2)NC(=O)CNC(=O)CNC(=O)[C@H](CO)NC(=O)[C@H](CCC(=O)O)NC(=O)[C@H](CC(C)C)NC(=O)[C@H](CC(C)C)NC(=O)[C@H](CCCCN)NC(=O)[C@H](CCCCN)NC(=O)[C@H]([C@@H](C)CC)NC(=O)[C@H]([C@@H](C)CC)NC(=O)[C@H](CCCCN)NC(=O)[C@H](CCCCN)NC(=O)[C@H](Cc2ccc(O)cc2)NC(=O)[C@H](CC(C)C)NC(=O)[C@@H]2CCCN2C(=O)[C@H](C)NC(=O)CNC(=O)CNC(=O)[C@H](CO)NC(=O)CNC(=O)CNC(=O)[C@H](CO)NC(=O)[C@H](CCC(=O)O)NC(=O)[C@H](CC(C)C)NC(=O)[C@H](CC(C)C)NC(=O)[C@H](CCCCN)NC(=O)[C@H](CCCCN)NC(=O)[C@H]([C@@H](C)CC)NC1=O [PDC 15] (cyclo(APLYKKIIKKLLESGGC(S(CH2)2OCO2(CPT-20-yl))GGAPLYKKIIKKLLESGGSGG))	40%	~0.9	Negligible degradation	–	–	–	–	–	–
CC[C@@]1(O)C(=O)OCc2c1cc1n(c2=O)Cc2cc3ccccc3nc2-1 [CPT, Camptothecin]	92% and > 90%	≥ 2	–	absence of activity	380	570	did not lyse RBCs	–	–
CC[C@H](C)[C@H](NC(=O)CN)C(=O)NCC(=O)N[C@@H](C)C(=O)N[C@H](C(=O)N[C@@H](CC(C)C)C(=O)N[C@@H](CCCCN)C(=O)N[C@H](C(=O)N[C@@H](CC(C)C)C(=O)N[C@H](C(=O)N[C@H](C(=O)NCC(=O)N[C@@H](CC(C)C)C(=O)N1CCC[C@H]1C(=O)N[C@@H](C)C(=O)N[C@@H](CC(C)C)C(=O)N[C@H](C(=O)N[C@@H](CO)C(=O)N[C@@H](Cc1c[nH]c2ccccc12)C(=O)N[C@H](C(=O)N[C@@H](CCCCN)C(=O)N[C@@H](CCCNC(=N)N)C(=O)N[C@@H](CCCCN)C(=O)N[C@@H](CCCNC(=N)N)C(=O)N[C@@H](CCC(N)=O)C(=O)N[C@@H](CCC(N)=O)C(N)=O)[C@@H](C)CC)[C@@H](C)CC)[C@@H](C)O)[C@@H](C)O)C(C)C)C(C)C [Melittin]	–	–	–	–	–	–	–	1.8	8
CC[C@H](C)[C@@H]1NC(=O)[C@H](CCCCN)NC(=O)[C@H](CCCCN)NC(=O)[C@H](Cc2ccc(O)cc2)NC(=O)[C@H](CC(C)C)NC(=O)[C@@H]2CCCN2C(=O)CNC(=O)CNC(=O)[C@@H](NC(=O)CN)CSSC[C@@H](C(=O)N[C@@H](CCC(=O)O)C(=O)N[C@@H](CO)C(N)=O)NC(=O)[C@H](CC(C)C)NC(=O)[C@H](CCCCN)NC(=O)[C@H](CCCCN)NC(=O)[C@H]([C@@H](C)CC)NC(=O)[C@H]([C@@H](C)CC)NC(=O)[C@H](CCCCN)NC(=O)[C@H](CCCCN)NC(=O)[C@H](Cc2ccc(O)cc2)NC(=O)[C@H](CC(C)C)NC(=O)[C@@H]2CCCN2C(=O)[C@H](C)NC(=O)CNC(=O)CNC(=O)[C@H](Cn2cc(COCCC(=O)N[C@H](C(=O)N[C@@H](CCCNC(N)=O)C(=O)Nc3ccc(COC(=O)O[C@]4(CC)C(=O)OCc5c4cc4n(c5=O)Cc5cc6ccccc6nc5-4)cc3)C(C)C)nn2)NC(=O)CNC(=O)CNC(=O)[C@H](CO)NC(=O)[C@H](CCC(=O)O)NC(=O)[C@H](CC(C)C)NC(=O)[C@H](CC(C)C)NC(=O)[C@H](CCCCN)NC(=O)[C@H](CCCCN)NC(=O)[C@H]([C@@H](C)CC)NC1=O [PDC 13]	poor recovery	–	degradation	–	–	–	–	–	–
